From US20120035320A1, “POLYACRIDINE NUCLEIC ACID DELIVERY PEPTIDE COMPLEXES” (University of Iowa Research Foundation, priority 2010, published 2012)
Where two headings read alike, the source gives them in different places. No end group written: not given here. Acr = acridine on the lysine ε-amine

Tests used:
[1] = tested on: Erythrocytes; test: RBC hemolysis assay; format: cell-based, mice
Experimental: Whole blood was obtained from male ICR mice by heart puncture with heparinized 22 G needles and collected in conical tubes containing 10 ml of 0.15 M PBS (pH 7.4) prewarmed to 37° C. Erythrocytes were immediately separated from plasma by centrifugation at 2000 rpm for 2 min, washed three times with 10 ml of PBS, and then diluted to 1.5×10^8 cells/ml. Peptides were prepared at 15 μM and serially diluted to 10-0.01 μM, after which 100 μl was pipetted in triplicate into a MultiScreenHTS BV 96 well plate. Erythrocytes (50 μl, 7.5×10^6 cells) were added to the peptides and incubated at 37° C. for 1 h followed by filtration on a Multiscreen vacuum manifold (Millipore Corporation, Billerica, Mass.). The filtrate was measured for Abs410nm on a Biotech plate reader (Biotech Instruments Incorporated., Winooski, Vt.) and compared to the 100% hemolysis caused by replacing PBS with water. Peptide DNA polyplexes (1.5 nmols and 7.5 μg pGL3) were also assayed for hemolysis as described above.

[2] = QELS particle size and zeta potential of polyacridine-melittin polyplexes; format: physicochemical; settings: mean particle size of peptide-DNA polyplex, 0.5 nmol of peptide per μg of DNA
Experimental: Particle size and zeta potential were determined by preparing 2 ml of polyplex in 5 mM Hepes pH 7.5 at a DNA concentration of 30 μg/ml with 15 nmols/ml of peptide (0.5 nmol of peptide per μg of DNA). Particle size was measured by quasi-elastic light scattering (QELS) at a scatter angle of 90° on a Brookhaven ZetaPlus particle sizer (Brookhaven Instruments Corporation, NY). The zeta potential was determined as the mean of ten measurements immediately following acquisition of the particle size.

[3] = tested on: HepG2, 3T3, and CHO cells; test: in vitro gene transfer (luciferase) in three cell lines; format: cell-based; settings: all three cell lines; 0.5 nmol per μg of pGL3
Experimental: HepG2 cells (5×10^5) were plated on 6×35 mm wells and grown to approximately 50% confluency. Transfections were performed in MEM supplemented with 2% FBS, sodium pyruvate (1 mM), and penicillin and streptomycin (100 U and 100 μg/mL). Polyplexes were prepared at a DNA concentration of 30 μg/ml and a stoichiometry of 0.5 nmol peptide per μg of DNA in Hepes buffered mannitol (HBM). Polyplexes (10 μg of DNA in 0.3 ml of HBM) were added drop wise to wells in triplicate. After 24 hrs, the cells were washed twice with 2 ml of ice-cold phosphate-buffered saline (Ca^2+- and Mg^2+-free) and then treated with 0.5 ml of lysis buffer (25 mM Tris Chloride, pH 7.8, 1 mM EDTA, 8 mM magnesium chloride, and 1% Triton X-100) for 10 min at 4° C. Cell lysates were scraped, transferred to 1.5 mL microcentrifuge tubes, and centrifuged for 10 min at 13,000 g at 4° C. to pellet cell debris. Lysis buffer (300 μL), sodium-ATP (4.3 μL of a 165 mM solution at pH 7, 4° C.) were combined in a test tube, mixed briefly, and immediately placed in the luminometer. Luciferase relative light units were measured by a Lumat LB 9501 (Berthold Systems, Germany) with 10 s integration after automatic injection of 100 μL of 0.5 mM D-luciferin. […] Protein concentrations were measured by a BCA assay using bovine serum albumin as a standard. […]

[4] = tested on: DNA; test: DNA band shift and thiazole orange displacement assays of cysteine-flanked acridinylated peptides; format: binding
Experimental: CKacrKKacrC (SEQ ID NO: 103), CKacrRKacrC (SEQ ID NO: 104), CKacrLKacrC (SEQ ID NO: 105), and CKacrFKacrC (SEQ ID NO: 106) (where Kacr is a lysine modified with acridine at the ε-amine) (FIG. 33, Formula VII) were synthesized by SPPS and purified while monitoring the absorbance of acridine at 409 nm. Monomers were evaluated for DNA affinity by DNA band shift and thiazole orange displacement assays. DNA complexes with monomers were also evaluated for particle size and ζ-potential. […] Buffered incubations of monomer at pH 8.0 were used to encourage polymerization of peptides and poly-CKacrKKacrC (SEQ ID NO: 103) and poly-CKacrRKacrC (SEQ ID NO: 104) have been isolated.

[5] = target: human DC-SIGN (Dendritic Cell-Specific Intracellular adhesion molecule-3 Grabbing Non-integrin) receptor, stably transfected in CHO cells (human) (UniProt Q9NNX6); test: cell-based or functional assay
Sequence of UniProt Q9NNX6 (Q9NNX6 whole entry): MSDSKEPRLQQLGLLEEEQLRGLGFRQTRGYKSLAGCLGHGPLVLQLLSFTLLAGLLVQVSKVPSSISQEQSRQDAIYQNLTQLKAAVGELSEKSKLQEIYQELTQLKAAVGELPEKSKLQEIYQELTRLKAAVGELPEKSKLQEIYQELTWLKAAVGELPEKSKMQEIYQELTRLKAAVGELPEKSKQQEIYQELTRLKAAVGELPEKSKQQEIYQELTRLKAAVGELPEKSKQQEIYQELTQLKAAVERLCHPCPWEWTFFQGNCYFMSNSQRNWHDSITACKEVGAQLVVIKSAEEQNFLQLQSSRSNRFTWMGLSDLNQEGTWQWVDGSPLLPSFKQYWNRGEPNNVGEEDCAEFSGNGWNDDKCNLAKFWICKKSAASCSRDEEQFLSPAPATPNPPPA

[6] = target: human DC-SIGN (Dendritic Cell-Specific Intracellular adhesion molecule-3 Grabbing Non-integrin) receptor, stably transfected in CHO cells (human) (UniProt Q9NNX6); test: FACS of DC-SIGN CHO (+) and (-) cells after 24 hr with Cy5-DNA glycopeptide polyplex
[7] = target: human DC-SIGN (Dendritic Cell-Specific Intracellular adhesion molecule-3 Grabbing Non-integrin) receptor, stably transfected in CHO cells (human) (UniProt Q9NNX6); test: FACS of DC-SIGN CHO (+) and (-) cells after 24 hr at 37 C with Cy5-DNA glycopeptide polyplex
[8] = tested on: liver; test: hydrodynamic stimulation and bioluminescence imaging of luciferase expression; format: in vivo, mice; settings: tail vein 1 μg pGL3 in complex with 0.5 nmol peptide; HD stimulation 30 min after DNA
Experimental: pGL3 (1 μg) was prepared in a volume of normal saline corresponding to 9 wt/vol % of the mouse's body weight (1.8-2.25 ml based on 20-25 g mice). The DNA dose was administered by tail vein to 4-5 mice in 5 sec according to a published procedure (Liu F, Song Y, Liu D. Hydrodynamics-based transfection in animals by systemic administration of plasmid DNA. Gene Ther 1999; 6: 1258-1266; Zhang G, Budker V, Wolff J A. High levels of foreign gene expression in hepatocytes after tail vein injections of naked plasmid DNA. Human Gene Therapy 1999; 10: 1735-1737). Mice (4-5) were also dosed tail vein with 1 μg of PEGylated polyacridine polyplex in 50 μl of HBM (5 mM Hepes, 0.27 M mannitol, pH 7.4). At times ranging from 5-120 min, a stimulatory hydrodynamic dose of normal saline (9 wt/vol % of the body weight) was administered over 5 sec. At 24 hrs post-DNA dose, mice were anesthetized by 3% isofluorane, then administered an i.p. dose of 80 μl (2.4 mg) of D-luciferin (30 μg/μl in phosphate-buffered saline). At 5 min following the D-luciferin dose, mice were imaged for bioluminescence (BLI) on an IVIS Imaging 200 Series (Xenogen). BLI was performed in a light-tight chamber on a temperature-controlled, adjustable stage while isofluorane was administered by a gas manifold at a flow rate of 3%. Images were acquired at a ‘medium’ binning level and a 20 cm field of view. Acquisition times were varied (1 sec^−1 min) depending on the intensity of the luminescence. The Xenogen system reported bioluminescence as photons/sec/cm^2/seradian in a 2.86 cm diameter region of interest covering the liver. The integration area was transformed to pmols of luciferase in the liver using a previously reported standard curve (Rettig G et al. Quantitative Bioluminscence Imaging of Transgene Expression In Vivo. Analytical Biochemistry 2006; 335: 90-94). The results were determined to be statistically significant (p≦0.05) based on a two-tailed unpaired t-test.

Molecule: CC[C@H](C)[C@H](NC(=O)CNC(=O)[C@H](CCCCN)NC(=O)[C@H](CCCCN)NC(=O)[C@H](Cc1c[nH]c2ccccc12)NC(=O)[C@@H](N)CSSC[C@H](NC(=O)[C@H](CCCNC(=N)N)NC(=O)[C@H](CCCCNC(C)=O)NC(=O)[C@H](CCCNC(=N)N)NC(=O)[C@H](CCCCNC(C)=O)NC(=O)[C@H](CCCNC(=N)N)NC(=O)[C@H](CCCCNC(C)=O)NC(=O)[C@H](CCCNC(=N)N)NC(=O)[C@H](CCCCNC(C)=O)NC(=O)[C@@H](N)Cc1c[nH]c2ccccc12)C(=O)O)C(=O)NCC(=O)N[C@@H](C)C(=O)N[C@H](C(=O)N[C@@H](CC(C)C)C(=O)N[C@@H](CCCCN)C(=O)N[C@H](C(=O)N[C@@H](CC(C)C)C(=O)N[C@H](C(=O)N[C@H](C(=O)NCC(=O)N[C@@H](CC(C)C)C(=O)N1CCC[C@H]1C(=O)N[C@@H](C)C(=O)N[C@@H](CC(C)C)C(=O)N[C@H](C(=O)N[C@@H](CO)C(=O)N[C@@H](CC(C)C)C(=O)N[C@H](C(=O)N[C@@H](CCCCN)C(=O)N[C@@H](CCCNC(=N)N)C(=O)N[C@@H](CCCCN)C(=O)N[C@@H](CCCNC(=N)N)C(=O)N[C@@H](CCC(N)=O)C(=O)N[C@@H](CCC(N)=O)C(=O)O)[C@@H](C)CC)[C@@H](C)CC)[C@@H](C)O)[C@@H](C)O)C(C)C)C(C)C [poly(Lys(Ac)-Arg)4-SS-melittin]
- EC50 ([1]; RBC hemolysis at pH 5.0, second value of the cell (pH 7.4:5.0), read-out: HL50 (μM) pH 5.0): 7.7 µM
- EC50 ([1]; RBC hemolysis at pH 7.4, first value of the cell (pH 7.4:5.0), read-out: HL50 (μM) pH 7.4): 5.6 µM
- Particle Size (nm) [2]: 177 nm
- gene transfer, fold less active than poly(Acr-Arg)4-SS-melittin [3]: 100-1000 fold

Molecule: CKacrKKacrC: cysteine-flanked acridinylated peptide, Kacr = lysine modified with acridine at the ε-amine; SEQ ID NO: 103 (CK(Acr)KK(Acr)C; cysteine pairing not given here)
- affinity for DNA [4]: higher affinity for DNA

Molecule: CKacrRKacrC: cysteine-flanked acridinylated peptide, SEQ ID NO: 104 (CK(Acr)RK(Acr)C; cysteine pairing not given here)
- affinity for DNA [4]: higher affinity for DNA

Molecule: Man 9 glycopeptide (Man9GlcNAc2-Asn-Tyr-propionate maleimide conjugated to Cys-(Acr-Lys)4)
- in vitro gene transfer (luciferase expression) in CHO (+) versus CHO (-) cells [5]: 100 fold
- fold fluorescence intensity, CHO (+) over CHO (-) cells [6]: 10 fold
- fold fluorescence intensity (cell uptake), CHO (+) over CHO (-) cells [7]: 10 to 50 fold

Molecule: PEGylated-SS-(Acr-Arg)4: (Acr-Arg)4-Cys with Cys thiol reacted with 5 kDa PEG-OPSS, reducible disulfide linkage
- BLI luciferase expression in liver at 24 hr [8]: approximately 10^7 photons/sec/cm^2/sr

Molecule: poly-CKacrKKacrC: disulfide polymer of CKacrKKacrC formed by buffered incubation at pH 8.0 (CK(Acr)KK(Acr)C; also: disulfide polymer formed at pH 8.0)
- affinity for DNA [4]: greater affinity of the polymer for DNA than the monomer
